Active and inactive are the calls of the source.
Columns and labels:
[1] = molecular target: Bone morphogenetic protein receptor type-1B (Homo sapiens, UniProt O00238)
[2] = molecular target: T1, ATP-dependent RNA helicase DDX1 (Homo sapiens, UniProt Q92499)
T1 sequence (Q92499 whole entry): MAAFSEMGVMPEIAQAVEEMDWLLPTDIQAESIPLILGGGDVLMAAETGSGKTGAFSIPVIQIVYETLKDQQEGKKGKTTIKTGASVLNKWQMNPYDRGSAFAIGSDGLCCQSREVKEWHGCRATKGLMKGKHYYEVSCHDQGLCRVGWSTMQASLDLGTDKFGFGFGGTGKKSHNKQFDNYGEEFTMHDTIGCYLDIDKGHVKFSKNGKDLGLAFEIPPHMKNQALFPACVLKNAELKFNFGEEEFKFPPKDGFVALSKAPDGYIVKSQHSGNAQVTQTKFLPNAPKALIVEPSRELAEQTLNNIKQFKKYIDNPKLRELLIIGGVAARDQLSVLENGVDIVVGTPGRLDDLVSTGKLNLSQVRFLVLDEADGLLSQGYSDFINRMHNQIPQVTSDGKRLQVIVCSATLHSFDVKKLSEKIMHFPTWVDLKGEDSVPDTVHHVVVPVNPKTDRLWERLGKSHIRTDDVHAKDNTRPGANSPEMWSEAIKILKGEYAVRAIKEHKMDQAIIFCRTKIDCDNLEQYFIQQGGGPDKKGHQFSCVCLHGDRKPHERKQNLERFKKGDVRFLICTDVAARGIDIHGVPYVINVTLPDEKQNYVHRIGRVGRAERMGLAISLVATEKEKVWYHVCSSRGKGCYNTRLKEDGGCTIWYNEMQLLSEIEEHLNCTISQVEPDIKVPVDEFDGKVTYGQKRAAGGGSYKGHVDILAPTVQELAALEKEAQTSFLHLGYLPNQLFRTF

Myosin-14 = Myosin-14 (Homo sapiens, UniProt Q7Z406)
Rab-like protein 3 = molecular target: T2, Rab-like protein 3 (Homo sapiens, UniProt Q5HYI8)
T2 sequence (Q5HYI8 whole entry): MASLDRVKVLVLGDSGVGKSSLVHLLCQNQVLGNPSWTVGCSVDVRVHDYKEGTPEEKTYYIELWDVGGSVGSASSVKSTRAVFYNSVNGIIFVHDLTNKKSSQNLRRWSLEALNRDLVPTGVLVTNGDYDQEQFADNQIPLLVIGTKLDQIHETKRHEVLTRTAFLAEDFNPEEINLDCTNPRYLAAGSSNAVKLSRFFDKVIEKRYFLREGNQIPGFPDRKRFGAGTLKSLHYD

[3] = molecular target: Ribosomal protein S6 kinase beta-1 (Homo sapiens, UniProt P23443)
Septin-9 = molecular target: T3, Septin-9 (Homo sapiens, UniProt Q9UHD8)
T3 sequence (Q9UHD8 whole entry): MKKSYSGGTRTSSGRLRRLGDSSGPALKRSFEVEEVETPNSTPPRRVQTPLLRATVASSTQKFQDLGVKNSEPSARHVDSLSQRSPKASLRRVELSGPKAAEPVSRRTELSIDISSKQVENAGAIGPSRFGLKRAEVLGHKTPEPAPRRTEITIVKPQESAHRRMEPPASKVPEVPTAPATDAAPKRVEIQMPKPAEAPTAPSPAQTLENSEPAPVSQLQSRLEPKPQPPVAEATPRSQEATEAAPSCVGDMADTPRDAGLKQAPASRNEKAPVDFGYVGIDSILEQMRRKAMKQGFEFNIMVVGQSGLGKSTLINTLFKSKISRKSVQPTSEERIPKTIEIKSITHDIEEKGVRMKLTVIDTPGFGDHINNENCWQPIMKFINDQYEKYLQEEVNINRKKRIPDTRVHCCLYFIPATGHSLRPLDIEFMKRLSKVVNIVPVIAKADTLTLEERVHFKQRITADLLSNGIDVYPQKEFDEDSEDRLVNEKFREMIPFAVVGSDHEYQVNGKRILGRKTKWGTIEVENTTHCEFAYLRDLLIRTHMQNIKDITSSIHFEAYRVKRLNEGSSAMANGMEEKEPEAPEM

[4] = molecular target: T4, General transcription and DNA repair factor IIH helicase subunit XPD (Homo sapiens, UniProt P18074); conditions: read-out: Kd apparent; k-562, colo 205, sk-n-be(2) and mv-4-11
T4 sequence (P18074 whole entry): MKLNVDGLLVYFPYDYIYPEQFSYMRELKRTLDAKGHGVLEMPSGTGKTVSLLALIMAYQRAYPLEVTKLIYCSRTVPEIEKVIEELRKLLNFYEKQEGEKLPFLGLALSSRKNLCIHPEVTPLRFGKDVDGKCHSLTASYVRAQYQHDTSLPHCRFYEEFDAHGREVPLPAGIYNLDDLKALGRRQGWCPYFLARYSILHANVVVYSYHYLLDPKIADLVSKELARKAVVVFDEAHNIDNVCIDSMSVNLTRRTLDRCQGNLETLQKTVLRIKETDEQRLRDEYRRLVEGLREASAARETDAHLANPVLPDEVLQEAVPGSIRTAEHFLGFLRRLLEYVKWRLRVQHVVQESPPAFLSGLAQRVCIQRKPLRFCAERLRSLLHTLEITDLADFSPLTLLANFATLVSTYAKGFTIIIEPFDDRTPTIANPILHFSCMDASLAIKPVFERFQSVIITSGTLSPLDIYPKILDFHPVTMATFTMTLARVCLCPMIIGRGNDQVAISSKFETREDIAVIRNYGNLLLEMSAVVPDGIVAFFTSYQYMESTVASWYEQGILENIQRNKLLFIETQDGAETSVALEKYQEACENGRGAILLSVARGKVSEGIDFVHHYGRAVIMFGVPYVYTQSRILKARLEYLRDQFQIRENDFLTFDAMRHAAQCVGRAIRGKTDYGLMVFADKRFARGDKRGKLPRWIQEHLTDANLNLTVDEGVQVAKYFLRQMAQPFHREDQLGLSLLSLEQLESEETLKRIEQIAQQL

Ephrin type-A receptor 5 = Ephrin type-A receptor 5 (Homo sapiens, UniProt P54756)
Note: in the data inactive means no Kd found up to 30 µM.

Bone morphogenetic protein receptor type-1B, sequence (O00238 whole entry): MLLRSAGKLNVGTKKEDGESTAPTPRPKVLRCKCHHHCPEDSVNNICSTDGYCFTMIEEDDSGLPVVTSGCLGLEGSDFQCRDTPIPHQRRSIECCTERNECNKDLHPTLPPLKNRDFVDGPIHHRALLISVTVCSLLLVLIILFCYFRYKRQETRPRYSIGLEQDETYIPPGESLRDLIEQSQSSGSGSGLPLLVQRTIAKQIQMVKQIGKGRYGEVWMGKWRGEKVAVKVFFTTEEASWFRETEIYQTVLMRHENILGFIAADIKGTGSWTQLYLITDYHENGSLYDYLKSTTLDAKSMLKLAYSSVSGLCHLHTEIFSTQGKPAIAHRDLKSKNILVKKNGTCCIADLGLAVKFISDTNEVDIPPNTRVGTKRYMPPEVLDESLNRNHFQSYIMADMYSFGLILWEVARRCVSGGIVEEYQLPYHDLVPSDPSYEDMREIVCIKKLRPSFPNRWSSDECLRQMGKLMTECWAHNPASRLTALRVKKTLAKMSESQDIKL
Ephrin type-A receptor 5, sequence (P54756 whole entry): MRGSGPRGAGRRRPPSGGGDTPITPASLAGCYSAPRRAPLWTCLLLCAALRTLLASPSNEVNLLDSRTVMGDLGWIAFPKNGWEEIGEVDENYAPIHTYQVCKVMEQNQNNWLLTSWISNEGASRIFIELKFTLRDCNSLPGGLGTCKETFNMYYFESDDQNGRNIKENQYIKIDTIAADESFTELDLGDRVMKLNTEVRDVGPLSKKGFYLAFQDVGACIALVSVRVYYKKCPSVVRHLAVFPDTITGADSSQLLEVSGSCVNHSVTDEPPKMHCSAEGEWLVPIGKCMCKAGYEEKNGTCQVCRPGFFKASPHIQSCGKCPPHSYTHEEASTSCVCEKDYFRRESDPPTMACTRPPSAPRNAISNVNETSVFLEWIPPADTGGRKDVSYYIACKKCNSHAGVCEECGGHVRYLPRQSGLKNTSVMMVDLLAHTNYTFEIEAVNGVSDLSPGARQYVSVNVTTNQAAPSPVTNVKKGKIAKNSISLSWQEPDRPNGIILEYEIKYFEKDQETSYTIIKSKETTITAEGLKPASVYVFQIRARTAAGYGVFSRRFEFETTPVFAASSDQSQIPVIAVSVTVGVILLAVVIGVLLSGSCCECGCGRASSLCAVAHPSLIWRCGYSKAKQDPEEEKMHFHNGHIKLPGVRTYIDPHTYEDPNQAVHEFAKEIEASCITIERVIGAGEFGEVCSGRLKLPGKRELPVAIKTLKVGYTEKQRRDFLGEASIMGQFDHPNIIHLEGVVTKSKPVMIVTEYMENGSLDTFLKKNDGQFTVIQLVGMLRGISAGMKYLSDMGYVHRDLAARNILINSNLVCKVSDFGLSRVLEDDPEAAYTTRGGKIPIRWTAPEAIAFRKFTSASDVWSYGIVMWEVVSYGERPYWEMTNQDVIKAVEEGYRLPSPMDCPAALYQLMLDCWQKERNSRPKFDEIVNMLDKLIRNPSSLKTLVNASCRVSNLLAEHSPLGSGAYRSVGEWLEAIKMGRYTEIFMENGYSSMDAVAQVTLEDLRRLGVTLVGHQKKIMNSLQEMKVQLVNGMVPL
Myosin-14, sequence (Q7Z406 whole entry): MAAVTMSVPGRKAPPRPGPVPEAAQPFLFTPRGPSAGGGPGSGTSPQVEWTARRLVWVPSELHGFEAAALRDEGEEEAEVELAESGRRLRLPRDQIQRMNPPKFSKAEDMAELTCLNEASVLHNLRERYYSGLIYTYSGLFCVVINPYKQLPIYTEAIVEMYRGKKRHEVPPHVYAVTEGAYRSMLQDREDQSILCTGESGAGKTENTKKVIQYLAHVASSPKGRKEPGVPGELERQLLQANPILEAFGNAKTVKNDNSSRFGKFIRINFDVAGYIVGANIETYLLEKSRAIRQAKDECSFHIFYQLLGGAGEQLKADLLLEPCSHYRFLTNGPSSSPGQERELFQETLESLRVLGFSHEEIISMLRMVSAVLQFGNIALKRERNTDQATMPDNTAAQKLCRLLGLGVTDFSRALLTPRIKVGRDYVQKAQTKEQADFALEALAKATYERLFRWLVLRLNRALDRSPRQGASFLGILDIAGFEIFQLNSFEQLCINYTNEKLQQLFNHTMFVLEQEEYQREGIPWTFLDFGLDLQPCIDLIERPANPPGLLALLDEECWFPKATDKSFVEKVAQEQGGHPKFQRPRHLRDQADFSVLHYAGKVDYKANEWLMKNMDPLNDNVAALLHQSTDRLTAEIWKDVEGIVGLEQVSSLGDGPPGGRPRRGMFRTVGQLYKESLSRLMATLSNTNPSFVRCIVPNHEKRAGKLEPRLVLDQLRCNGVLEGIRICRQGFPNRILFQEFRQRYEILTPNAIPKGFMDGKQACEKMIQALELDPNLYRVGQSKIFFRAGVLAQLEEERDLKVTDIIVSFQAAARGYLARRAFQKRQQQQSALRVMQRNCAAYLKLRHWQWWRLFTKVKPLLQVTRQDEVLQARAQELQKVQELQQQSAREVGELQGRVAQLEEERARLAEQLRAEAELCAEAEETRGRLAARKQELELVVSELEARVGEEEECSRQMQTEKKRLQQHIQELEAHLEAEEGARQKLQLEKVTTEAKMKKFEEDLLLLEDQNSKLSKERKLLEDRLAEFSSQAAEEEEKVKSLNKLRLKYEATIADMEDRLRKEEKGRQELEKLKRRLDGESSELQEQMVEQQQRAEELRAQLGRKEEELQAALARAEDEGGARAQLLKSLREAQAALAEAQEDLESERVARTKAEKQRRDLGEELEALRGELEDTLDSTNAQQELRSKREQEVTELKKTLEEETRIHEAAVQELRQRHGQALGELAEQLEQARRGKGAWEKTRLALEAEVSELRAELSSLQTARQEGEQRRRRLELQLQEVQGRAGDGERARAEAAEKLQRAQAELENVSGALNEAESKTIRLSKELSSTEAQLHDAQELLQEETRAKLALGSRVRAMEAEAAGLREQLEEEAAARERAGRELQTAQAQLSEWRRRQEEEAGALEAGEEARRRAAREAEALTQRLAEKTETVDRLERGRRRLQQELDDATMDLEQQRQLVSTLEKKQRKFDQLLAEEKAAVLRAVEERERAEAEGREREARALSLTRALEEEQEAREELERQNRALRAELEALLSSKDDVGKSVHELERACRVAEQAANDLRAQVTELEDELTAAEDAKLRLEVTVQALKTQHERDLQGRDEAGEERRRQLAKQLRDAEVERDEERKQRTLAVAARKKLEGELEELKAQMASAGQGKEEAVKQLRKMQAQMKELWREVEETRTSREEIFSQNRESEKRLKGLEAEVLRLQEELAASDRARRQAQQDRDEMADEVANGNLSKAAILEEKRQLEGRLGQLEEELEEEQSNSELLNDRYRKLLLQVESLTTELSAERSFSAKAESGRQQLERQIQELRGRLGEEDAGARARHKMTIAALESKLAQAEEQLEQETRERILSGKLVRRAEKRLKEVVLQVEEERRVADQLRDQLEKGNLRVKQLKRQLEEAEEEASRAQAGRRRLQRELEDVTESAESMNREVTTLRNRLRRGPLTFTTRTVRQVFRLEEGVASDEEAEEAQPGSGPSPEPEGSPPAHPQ
Ribosomal protein S6 kinase beta-1, sequence (P23443 whole entry): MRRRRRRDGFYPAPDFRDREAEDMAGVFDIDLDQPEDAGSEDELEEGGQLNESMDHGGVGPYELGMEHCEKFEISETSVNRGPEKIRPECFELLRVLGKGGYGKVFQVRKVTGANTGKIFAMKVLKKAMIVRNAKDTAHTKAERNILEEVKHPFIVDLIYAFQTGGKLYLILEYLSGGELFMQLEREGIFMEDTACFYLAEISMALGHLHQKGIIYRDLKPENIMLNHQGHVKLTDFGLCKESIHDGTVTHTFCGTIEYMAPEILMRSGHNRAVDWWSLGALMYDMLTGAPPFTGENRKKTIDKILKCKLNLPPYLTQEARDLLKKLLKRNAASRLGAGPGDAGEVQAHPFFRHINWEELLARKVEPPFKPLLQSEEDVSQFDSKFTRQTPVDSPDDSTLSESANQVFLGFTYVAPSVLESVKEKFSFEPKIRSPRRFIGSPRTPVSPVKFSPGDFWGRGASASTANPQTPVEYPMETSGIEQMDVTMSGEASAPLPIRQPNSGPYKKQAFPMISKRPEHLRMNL

Kd [1]	Kd [2]	Kd (Myosin-14)	Kd (Rab-like protein 3)	Kd [3]	Kd (Septin-9)	Kd [4]	Kd (Ephrin type-A receptor 5)	SMILES
> 30 µM (inactive)	> 30 µM (inactive)	> 30 µM (inactive)	> 30 µM (inactive)	> 30 µM (inactive)	> 30 µM (inactive)	> 30 µM (inactive)		N[C@@H]1CCCN(c2c(/C=C3\SC(=O)NC3=O)cccc2-c2ccccc2)C1
> 30 µM (inactive)	> 30 µM (inactive)		> 30 µM (inactive)	> 30 µM (inactive)	> 30 µM (inactive)	> 30 µM (inactive)	> 30 µM (inactive)	Cc1ccc(S(=O)(=O)Nc2nc3ccccc3nc2Nc2ccc3nsnc3c2)cc1
1.82 µM (active)	> 30 µM (inactive)		> 30 µM (inactive)	> 30 µM (inactive)	> 30 µM (inactive)	> 30 µM (inactive)	> 30 µM (inactive)	COc1cc(N2CCC(N3CCN(C)CC3)CC2)ccc1Nc1ncnc(Nc2ccccc2S(=O)(=O)C(C)C)n1 [ASP-3026]
> 30 µM (inactive)	> 30 µM (inactive)	> 30 µM (inactive)	> 30 µM (inactive)		> 30 µM (inactive)	> 30 µM (inactive)		Cc1nc(N)sc1-c1ccnc(Nc2ccc(N3CCOCC3)cc2)n1 [CYC-116]
	> 30 µM (inactive)	> 30 µM (inactive)	> 30 µM (inactive)		> 30 µM (inactive)	> 30 µM (inactive)		CN1CCN(c2ccc3nc(-c4c(N)c5c(F)cccc5[nH]c4=O)[nH]c3c2)CC1 [DOVITINIB]
> 30 µM (inactive)	> 30 µM (inactive)	> 30 µM (inactive)			> 30 µM (inactive)	> 30 µM (inactive)	> 30 µM (inactive)	Cc1cc(Nc2cc(N3CCN(C)CC3)nc(/C=C/c3ccccc3)n2)n[nH]1 [ENMD-2076]
	> 30 µM (inactive)	> 30 µM (inactive)	> 30 µM (inactive)		> 30 µM (inactive)	> 30 µM (inactive)		CCn1c(-c2nonc2N)nc2c(C#CC(C)(C)O)ncc(OC[C@H]3CCCNC3)c21 [GSK-690693]
> 30 µM (inactive)	> 30 µM (inactive)		> 30 µM (inactive)	> 30 µM (inactive)	> 30 µM (inactive)		> 30 µM (inactive)	CC[C@H](Nc1ncnc2[nH]cnc12)c1nc2cccc(F)c2c(=O)n1-c1ccccc1 [IDELALISIB]
> 30 µM (inactive)	> 30 µM (inactive)	> 30 µM (inactive)	> 30 µM (inactive)		> 30 µM (inactive)	> 30 µM (inactive)	> 30 µM (inactive)	COc1cc2nccc(Oc3ccc(NC(=O)NC4CC4)c(Cl)c3)c2cc1C(N)=O [LENVATINIB]
> 30 µM (inactive)	> 30 µM (inactive)		> 30 µM (inactive)	> 30 µM (inactive)	> 30 µM (inactive)	> 30 µM (inactive)	> 30 µM (inactive)	Cc1c(F)cc(C(=O)NC2CC2)cc1-c1ccc(C(=O)NCC(C)(C)C)cn1 [LOSMAPIMOD]
> 30 µM (inactive)	> 30 µM (inactive)		> 30 µM (inactive)	> 30 µM (inactive)	> 30 µM (inactive)	> 30 µM (inactive)	> 30 µM (inactive)	CN(C)C(=O)c1cc2cnc(Nc3ccc(N4CCNCC4)cn3)nc2n1C1CCCC1 [RIBOCICLIB]
> 30 µM (inactive)	> 30 µM (inactive)		> 30 µM (inactive)	> 30 µM (inactive)	> 30 µM (inactive)	> 30 µM (inactive)	> 30 µM (inactive)	COc1cc(OC)c(/C=C/S(=O)(=O)Cc2ccc(OC)c(NCC(=O)O)c2)c(OC)c1 [RIGOSERTIB]
> 30 µM (inactive)	> 30 µM (inactive)	> 30 µM (inactive)	> 30 µM (inactive)		> 30 µM (inactive)	> 30 µM (inactive)	> 30 µM (inactive)	C[C@@H](c1ccc2nccn2c1)n1nnc2ncc(-c3cnn(C)c3)nc21 [SAVOLITINIB]
	> 30 µM (inactive)		> 30 µM (inactive)		> 30 µM (inactive)	> 30 µM (inactive)		Nc1nc(N)c2nc(-c3cccc(O)c3)c(-c3cccc(O)c3)nc2n1 [TG100-115]
	> 30 µM (inactive)	> 30 µM (inactive)	> 30 µM (inactive)	> 30 µM (inactive)	> 30 µM (inactive)	> 30 µM (inactive)	> 30 µM (inactive)	CN1N=C(N)c2cn([C@@H]3O[C@H](COP(=O)(O)O)[C@@H](O)[C@H]3O)c3ncnc1c23 [TRICIRIBINE PHOSPHATE]

SMILES	Kd [1]	Kd [2]	Kd (Myosin-14)	Kd (Rab-like protein 3)	Kd [3]	Kd (Septin-9)	Kd [4]	Kd (Ephrin type-A receptor 5)
Cc1cc(-c2cc(O)ccc2Cl)cc2nnc(Nc3ccc(OCCN4CCCC4)cc3)nc12	> 30 µM (inactive)	> 30 µM (inactive)		> 30 µM (inactive)	> 30 µM (inactive)	> 30 µM (inactive)	> 30 µM (inactive)	0.0004 µM (active)
O=C(c1ccc(F)c(F)c1Nc1ccc(I)cc1F)N1CC(O)([C@@H]2CCCCN2)C1 [COBIMETINIB]	> 30 µM (inactive)	> 30 µM (inactive)	> 30 µM (inactive)	> 30 µM (inactive)		> 30 µM (inactive)	> 30 µM (inactive)	> 30 µM (inactive)
Cc1cn(-c2cc(NC(=O)c3ccc(C)c(Nc4nccc(-c5cccnc5)n4)c3)cc(C(F)(F)F)c2)cn1 [NILOTINIB]		> 30 µM (inactive)	> 30 µM (inactive)	> 30 µM (inactive)		> 30 µM (inactive)	> 30 µM (inactive)	
C=CC(=O)N1CCC(Oc2cc3c(Nc4ccc(Cl)c(Cl)c4F)ncnc3cc2OC)CC1 [POZIOTINIB]	> 30 µM (inactive)			> 30 µM (inactive)	> 30 µM (inactive)	> 30 µM (inactive)	> 30 µM (inactive)	> 30 µM (inactive)
O=C(Nc1cccc(Cl)c1)Nc1ncc(CCNc2ncnc3ccsc23)s1 [SNS-314]	> 30 µM (inactive)	> 30 µM (inactive)	> 30 µM (inactive)	> 30 µM (inactive)		> 30 µM (inactive)	> 30 µM (inactive)	> 30 µM (inactive)
CN1CCC(COc2cnc(-c3cccc(Cn4nc(-c5cccc(C#N)c5)ccc4=O)c3)nc2)CC1 [TEPOTINIB]	> 30 µM (inactive)	> 30 µM (inactive)			> 30 µM (inactive)	> 30 µM (inactive)	> 30 µM (inactive)	> 30 µM (inactive)

Reference: ChEMBL document CHEMBL3991601, “The target landscape of clinical kinase drugs” (Science, 2017)
